According to ChEMBL document CHEMBL1201862, “PubChem BioAssay data set” (2004):
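Following 48 hours of exposure in 96-well plates, responses at five concentrations were used to interpolate endpoints linearly. The concentration for 50% growth inhibition is given as GI50.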 Activity calls are given as the source filed them. Cut-off read from the data, not from the text of the source: active = GI50 up to about 1.1 µM and inactive = higher.

Columns and labels:
Assay in all cases: inhibition of tumour cell growth, NCI panel, 48 h
HOP-18 = tested on: HOP-18
EKVX = tested on: EKVX
ACHN = tested on: ACHN
OVCAR-4 = tested on: OVCAR-4
Malme-3M = tested on: Malme-3M
UACC-62 = tested on: UACC-62
HL-60 = tested on: HL-60
HCT-116 = tested on: HCT-116
HT-29 = tested on: HT-29
NCI-H460 = tested on: NCI-H460
SW-620 = tested on: SW-620
COLO 205 = tested on: COLO 205
CCRF-CEM = tested on: CCRF-CEM
HOP-62 = tested on: HOP-62
U-251 = tested on: U-251
SF-268 = tested on: SF-268
MDA-MB-231 = tested on: MDA-MB-231
PC-3 = tested on: PC-3
MCF7 = tested on: MCF7
BT-549 = tested on: BT-549

Measured: GI50

COc1ccc(NC(=O)C(=O)Cc2nc3ccc([N+](=O)[O-])cc3nc2O)c(OC)c1
inactive: HOP-18 56.1 µM | EKVX > 100 µM | ACHN > 100 µM | OVCAR-4 > 100 µM | Malme-3M > 100 µM | UACC-62 > 100 µM | HL-60 > 100 µM | HCT-116 > 100 µM | HT-29 > 100 µM | NCI-H460 > 100 µM | SW-620 > 100 µM | COLO 205 > 100 µM | CCRF-CEM > 100 µM

Cn1ccnc1CCc1ccc(Cl)c(Cl)c1
inactive: HOP-18 47.1 µM | ACHN > 100 µM | OVCAR-4 > 100 µM | Malme-3M > 100 µM | UACC-62 > 100 µM | HL-60 69 µM | HCT-116 > 100 µM | HT-29 86.7 µM | NCI-H460 > 100 µM | HOP-62 > 100 µM | U-251 > 100 µM | SF-268 > 100 µM | SW-620 > 100 µM | COLO 205 > 100 µM | CCRF-CEM > 100 µM

N#CCCN(CCC#N)c1ccc(C(=O)NN)cc1
inactive: HOP-18 > 100 µM | EKVX > 100 µM | ACHN > 100 µM | OVCAR-4 > 100 µM | Malme-3M > 100 µM | UACC-62 > 100 µM | HL-60 > 100 µM | HCT-116 > 100 µM | HT-29 > 100 µM | NCI-H460 > 100 µM | HOP-62 > 100 µM | U-251 > 100 µM | SF-268 > 100 µM | SW-620 > 100 µM | COLO 205 > 100 µM | CCRF-CEM > 100 µM

CN[C@@H](C)[C@H](NC)c1ccccc1
inactive: HOP-18 > 100 µM | EKVX > 100 µM | Malme-3M > 100 µM | UACC-62 > 100 µM | HL-60 > 100 µM | HCT-116 > 100 µM | HT-29 > 100 µM | U-251 > 100 µM | SW-620 > 100 µM | COLO 205 > 100 µM | CCRF-CEM > 100 µM

CCCCCCCCCCCC(=O)OC(COC(N)=O)COc1ccc(Cl)cc1 (centres undefined)
inactive: HOP-18 11.3 µM | EKVX 30.1 µM | ACHN > 100 µM | OVCAR-4 19.1 µM | Malme-3M 21.9 µM | UACC-62 19.5 µM | HL-60 15.3 µM | HCT-116 15.9 µM | HT-29 20 µM | NCI-H460 23.7 µM | HOP-62 25 µM | U-251 25.8 µM | SF-268 20.6 µM | SW-620 24.3 µM | COLO 205 17 µM | CCRF-CEM 18.2 µM

CCCCCCCCCCCC(=O)OCC1OC(n2cc(F)c(=O)[nH]c2=O)C(NC(=O)OCc2ccccc2)C(OC(=O)CCCCCCCCCCC)C1O (centres undefined)
inactive: HOP-18 > 100 µM | EKVX > 100 µM | ACHN > 100 µM | OVCAR-4 > 100 µM | Malme-3M > 100 µM | UACC-62 > 100 µM | HCT-116 > 100 µM | HT-29 > 100 µM | NCI-H460 > 100 µM | HOP-62 > 100 µM | U-251 > 100 µM | SF-268 > 100 µM | SW-620 > 100 µM | COLO 205 > 100 µM | CCRF-CEM > 100 µM

CCc1cccc(C)c1NC(=O)CC(=O)NNC(N)=S
inactive: HOP-18 > 100 µM | EKVX > 100 µM | ACHN > 100 µM | OVCAR-4 > 100 µM | Malme-3M > 100 µM | HL-60 > 100 µM | HT-29 > 100 µM | NCI-H460 > 100 µM | HOP-62 > 100 µM | U-251 > 100 µM | SF-268 > 100 µM | SW-620 > 100 µM | COLO 205 > 100 µM | CCRF-CEM > 100 µM

COc1ccc2cc(C(=O)c3ccccc3C(=O)O)ccc2c1
inactive: HOP-18 > 100 µM | EKVX > 100 µM | ACHN > 100 µM | OVCAR-4 > 100 µM | Malme-3M > 100 µM | UACC-62 > 100 µM | HL-60 > 100 µM | HCT-116 > 100 µM | HT-29 > 100 µM | NCI-H460 > 100 µM | HOP-62 > 100 µM | U-251 > 100 µM | SF-268 > 100 µM | SW-620 > 100 µM | COLO 205 > 100 µM | CCRF-CEM > 100 µM

COc1ccc([Se]c2ccc(OC)cc2)cc1
inactive: HOP-18 27.9 µM | ACHN > 100 µM | Malme-3M > 100 µM | UACC-62 > 100 µM | HL-60 41.5 µM | HCT-116 55.2 µM | HT-29 43.6 µM | NCI-H460 > 100 µM | HOP-62 > 100 µM | U-251 > 100 µM | SF-268 56.9 µM | SW-620 > 100 µM | COLO 205 > 100 µM | CCRF-CEM 58.9 µM

Cc1cccc(C(C)(C)C)c1NC(=O)C(=O)C(C(=O)/C=C\c1ccccc1)C1OC(=O)c2ccccc21 (centres undefined)
inactive: HOP-18 > 100 µM | EKVX > 100 µM | ACHN > 100 µM | OVCAR-4 > 100 µM | Malme-3M > 100 µM | UACC-62 > 100 µM | HL-60 > 100 µM | HCT-116 > 100 µM | HT-29 > 100 µM | NCI-H460 > 100 µM | HOP-62 > 100 µM | U-251 > 100 µM | SF-268 > 100 µM | SW-620 > 100 µM | COLO 205 > 100 µM | CCRF-CEM > 100 µM

C1=C2/CC[C@H](Sc3ccccc3)C2C2(CCCCC/1)OCCO2 (some centres undefined)
inactive: HOP-18 29.9 µM | EKVX 32.9 µM | ACHN 26.7 µM | Malme-3M 22.1 µM | UACC-62 16.5 µM | HL-60 8.41 µM | HCT-116 16.5 µM | HT-29 14.4 µM | NCI-H460 21.5 µM | HOP-62 19.3 µM | U-251 29.3 µM | SF-268 39.2 µM | SW-620 28.1 µM | COLO 205 21.6 µM | CCRF-CEM 28.6 µM

C[C@@H]1OC2(O)[C@H]3CCCN3S(=O)(=O)CCN2C1=O (some centres undefined)
inactive: HOP-18 > 100 µM | EKVX > 100 µM | ACHN > 100 µM | OVCAR-4 > 100 µM | Malme-3M > 100 µM | UACC-62 > 100 µM | HL-60 > 100 µM | HCT-116 > 100 µM | HT-29 > 100 µM | NCI-H460 > 100 µM | HOP-62 > 100 µM | U-251 > 100 µM | SF-268 > 100 µM | SW-620 > 100 µM | COLO 205 > 100 µM | CCRF-CEM > 100 µM

CN(C)c1ccc(/C=C2\CNC/C(=C\c3ccc(N(C)C)cc3)C2=O)cc1
inactive: HOP-18 18.9 µM | EKVX > 100 µM | ACHN 24.4 µM | OVCAR-4 13.3 µM | Malme-3M > 100 µM | UACC-62 34.5 µM | HCT-116 16 µM | HT-29 10.9 µM | NCI-H460 15.5 µM | HOP-62 > 100 µM | U-251 14.4 µM | SF-268 > 10 µM | COLO 205 45.1 µM | CCRF-CEM 25.8 µM

[O-][S@@+]1c2ccc3ccccc3c2N[C@@H]2[C@H]1[C@H]1C=C[C@@H]2C1
inactive: MDA-MB-231 32.3 µM | EKVX > 100 µM | ACHN > 100 µM | OVCAR-4 23.9 µM | PC-3 32.4 µM | Malme-3M 58.9 µM | UACC-62 84.1 µM | HL-60 24 µM | HCT-116 39.5 µM | HT-29 34.9 µM | NCI-H460 37.6 µM | HOP-62 59.4 µM | MCF7 26.1 µM | U-251 76.4 µM | SF-268 61 µM | BT-549 32.4 µM | SW-620 34 µM | COLO 205 46.6 µM | CCRF-CEM 23.6 µM

O=c1[nH]nc(-c2ccccc2)n1/N=C\c1ccccc1
inactive: MDA-MB-231 > 100 µM | EKVX > 100 µM | ACHN > 100 µM | OVCAR-4 > 100 µM | PC-3 > 100 µM | Malme-3M > 100 µM | UACC-62 > 100 µM | HL-60 > 100 µM | HCT-116 > 100 µM | HT-29 > 100 µM | NCI-H460 > 100 µM | HOP-62 > 100 µM | MCF7 > 100 µM | U-251 > 100 µM | SF-268 31 µM | BT-549 > 100 µM | SW-620 > 100 µM | COLO 205 > 100 µM | CCRF-CEM > 100 µM

CC(C)(C)c1cc(C2COC(=O)COCC(=O)OCCOCCOCCO2)cc(C(C)(C)C)c1O (centres undefined)
inactive: MDA-MB-231 44.6 µM | EKVX > 75.7 µM | ACHN 19.6 µM | OVCAR-4 > 100 µM | PC-3 40.2 µM | Malme-3M > 100 µM | UACC-62 27.2 µM | HL-60 > 31.6 µM | HCT-116 > 100 µM | HT-29 98.9 µM | NCI-H460 30.9 µM | HOP-62 46.7 µM | MCF7 > 100 µM | U-251 34.3 µM | SF-268 18.2 µM | BT-549 > 57.5 µM | SW-620 > 65.8 µM | COLO 205 > 100 µM | CCRF-CEM > 100 µM

CCN(CC)CCSc1c2ccccc2nc2cc(NCC(=O)Nc3ccccc3-c3ccccc3NC(=O)CNc3ccc4c(SCCN(CC)CC)c5ccccc5nc4c3)ccc12
inactive: HOP-18 > 100 µM | EKVX > 100 µM | ACHN > 100 µM | OVCAR-4 > 88.9 µM | Malme-3M > 77.3 µM | UACC-62 > 100 µM | HL-60 20.3 µM | HCT-116 > 78.3 µM | HT-29 > 100 µM | NCI-H460 > 100 µM | HOP-62 > 100 µM | U-251 > 100 µM | SF-268 > 100 µM | SW-620 > 100 µM | COLO 205 > 35.2 µM | CCRF-CEM 24.9 µM
